Patent publication US20090298882A1, “THIOXOISOINDOLINE COMPOUNDS AND COMPOSITIONS COMPRISING AND METHODS OF USING THE SAME” (priority 2008, published 2009)

What was measured:
[1] = system: TNFα; assay: TNFα Inhibition Assay in PMBC (LPS-stimulated, ELISA); format: cell-based, human; conditions: LPS-stimulated PBMC; procedures substantially similar to Section 5.10
Protocol: Peripheral blood mononuclear cells (PBMC) from normal donors are obtained by Ficoll Hypaque (Pharmacia, Piscataway, N.J., USA) density centrifugation. Cells are cultured in RPMI 1640 (Life Technologies, Grand Island, N.Y., USA) supplemented with 10% AB+human serum (Gemini Bio-products, Woodland, Calif., USA), 2 mM L-glutamine, 100 U/ml penicillin, and 100 µg/ml streptomycin (Life Technologies).
PBMC (2×10^5 cells) are plated in 96-well flat-bottom Costar tissue culture plates (Corning, N.Y., USA) in triplicate. Cells are stimulated with LPS (from Salmonella abortus equi, Sigma cat. no. L-1887, St. Louis, Mo., USA) at 1 ng/ml final in the absence or presence of compounds. Compounds provided herein are dissolved in DMSO (Sigma) and further dilutions are done in culture medium immediately before use. The final DMSO concentration in all assays can be about 0.25%. Compounds are added to cells 1 hour before LPS stimulation. Cells are then incubated for 18-20 hours at 37° C. in 5% CO2, and supernatants are then collected, diluted with culture medium and assayed for TNF levels by ELISA (Endogen, Boston, Mass., USA). IC50s are calculated using non-linear regression, sigmoidal dose-response, constraining the top to 100% and bottom to 0%, allowing variable slope (GraphPad Prism v3.02).

[2] = system: Namalwa cells; assay: Cell proliferation assay (3H-thymidine incorporation); format: cell-based; conditions: procedures substantially similar to Section 5.10
Protocol: Cell lines Namalwa, MUTZ-5, and UT-7 are obtained from the Deutsche Sammlung von Mikroorganismen und Zellkulturen GmbH (Braunschweig, Germany). The cell line KG-1 is obtained from the American Type Culture Collection (Manassas, Va., USA). Cell proliferation as indicated by ^3H-thymidine incorporation is measured in all cell lines as follows.
Cells are plated in 96-well plates at 6000 cells per well in media. The cells are pre-treated with compounds at about 100, 10, 1, 0.1, 0.01, 0.001, 0.0001 and 0 M in a final concentration of about 0.25% DMSO in triplicate at 37° C. in a humidified incubator at 5% CO2 for 72 hours. One microcurie of ^3H-thymidine (Amersham) is then added to each well, and cells are incubated again at 37 C in a humidified incubator at 5% CO2 for 6 hours. The cells are harvested onto UniFilter GF/C filter plates (Perkin Elmer) using a cell harvester (Tomtec), and the plates are allowed to dry overnight. Microscint 20 (Packard) (25 ÿl/well) is added, and plates are analyzed in TopCount NXT (Packard). Each well is counted for one minute. Percent inhibition of cell proliferation is calculated by averaging all triplicates and normalizing to the DMSO control (0% inhibition). Each compound is tested in each cell line in three separate experiments. Final IC50s are calculated using non-linear regression, sigmoidal dose-response, constraining the top to 100% and bottom to 0%, allowing variable slope. (GraphPad Prism v3.02).

[3] = system: IL-2; assay: IL-2 production by T cells (anti-CD3 stimulated, ELISA); format: cell-based, human; conditions: procedures substantially similar to Section 5.10
Protocol: PBMC are depleted of adherent monocytes by placing 1×10^8 PBMC in 10 ml complete medium (RPMI 1640 supplemented with 10% heat-inactivated fetal bovine serum, 2 mM L-glutamine, 100 U/ml penicillin, and 100 µg/ml streptomycin) per 10 cm tissue culture dish, in 37 C, 5% CO2 incubator for 30-60 minutes. The dish is rinsed with medium to remove all non-adherent PBMC. T cells are purified by negative selection using the following antibody (Pharmingen) and Dynabead (Dynal) mixture for every 1×10^8 non-adherent PBMC: 0.3 ml Sheep anti-mouse IgG beads, 15 1 anti-CD16, 15 1 anti-CD33, 15 1 anti-CD56, 0.23 ml anti-CD19 beads, 0.23 ml anti-HLA class II beads, and 56 1 anti-CD14 beads. The cells and bead/antibody mixture is rotated end-over-end for 30-60 minutes at 4 C. Purified T cells are removed from beads using a Dynal magnet. Typical yield is about 50% T cells, 87-95% CD3^+ by flow cytometry.
Tissue culture 96-well flat-bottom plates are coated with anti-CD3 antibody OKT3 at 5 μg/ml in PBS, 100 μl per well, incubated at 37° C. for 3-6 hours, then washed four times with complete medium 100 μl/well just before T cells are added. Compounds are diluted to 20 times of final in a round bottom tissue culture 96-well plate. Final concentrations are about 10 μM to about 0.00064 μM. A 10 mM stock of compounds provided herein is diluted 1:50 in complete for the first 20× dilution of 200 μM in 2% DMSO and serially diluted 1:5 into 2% DMSO. Compound is added at 10 μl per 200 l culture, to give a final DMSO concentration of 0.1%. Cultures are incubated at 37° C., 5% CO2 for 2-3 days, and supernatants analyzed for IL-2 and MIP-3 by ELISA (R&D Systems). IL-2 and MIP-3 levels are normalized to the amount produced in the presence of an amount of a compound provided herein, and EC50s calculated using non-linear regression, sigmoidal dose-response, constraining the top to 100% and bottom to 0%, allowing variable slope (GraphPad Prism v3.02).

Compound | ability to inhibit TNFα (activity range) [1] | ability to inhibit proliferation of Namalwa cells (activity range) [2] | ability to stimulate IL-2 (activity range) [3] | melting point [°C]
Nc1cccc2c1CN(C1CCC(=O)NC1=O)C2=S (stereo not shown) [3-(4-Amino-1-thioxo-1,3-dihydro-isoindol-2-yl)-piperidine-2,6-dione] | μM-mM | μM-mM | μM-mM | 
O=C1NC(=S)CCC1N1Cc2c(cccc2[N+](=O)[O-])C1=S (stereo not shown) [3-(4-Nitro-1-thioxo-1,3-dihydro-isoindol-2-yl)-6-thioxo-piperidin-2-one] | μM-mM | μM-mM | μM-mM | 248 to 250
Nc1cccc2c1CN(C1CCC(=S)NC1=O)C2=S (stereo not shown) [3-(4-Amino-1-thioxo-1,3-dihydro-isoindol-2-yl)-6-thioxo-piperidin-2-one] | μM-mM | μM-mM | μM-mM | 
